The NIST ThermoML archive (doi:10.1016/j.tca.2016.08.021)
Numbers after ± are expanded uncertainties.

Legend:
[1] = 100 kPa, Liquid; for viscosity: Capillary tube (Ostwald / Ubbelohde) method; for mass density: Vibrating tube method
[2] = xn = mol fraction of the nth substance listed; settings: 100 kPa, Liquid; for viscosity: Capillary tube (Ostwald / Ubbelohde) method; for mass density: Vibrating tube method

CCNCCO [2-(ethylamino)ethanol]
[1]
Settings	mass density [kg/m3]	viscosity [mPa·s]
293.15 K	916.8 ± 3.7	15.39 ± 0.34
303.15 K	909.7 ± 3.6	9.65 ± 0.22
313.15 K	901.3 ± 3.6	6.64 ± 0.15
323.15 K	894.7 ± 3.6	4.53 ± 0.1
333.15 K	887.2 ± 3.6	3.36 ± 0.07

CCNCCO [2-(ethylamino)ethanol] + CCN(CC)CCO
[2]
Settings	mass density, 293.15 K [kg/m3]	mass density, 303.15 K [kg/m3]	mass density, 313.15 K [kg/m3]	mass density, 323.15 K [kg/m3]	mass density, 333.15 K [kg/m3]	viscosity, 293.15 K [mPa·s]	viscosity, 303.15 K [mPa·s]	viscosity, 313.15 K [mPa·s]	viscosity, 323.15 K [mPa·s]	viscosity, 333.15 K [mPa·s]
x2 = 0	916.8 ± 3.7	909.7 ± 3.6	901.3 ± 3.6	894.7 ± 3.6	887.2 ± 3.6	15.39 ± 0.34	9.65 ± 0.22	6.64 ± 0.15	4.53 ± 0.1	3.36 ± 0.07
x2 = 0.2	910 ± 3.6	903 ± 3.6	894.8 ± 3.6	887.8 ± 3.6	880.6 ± 3.5	12.19 ± 0.27	7.84 ± 0.18	5.35 ± 0.12	3.85 ± 0.08	2.88 ± 0.06
x2 = 0.4	903 ± 3.6	895.5 ± 3.6	887.6 ± 3.6	880 ± 3.5	872.1 ± 3.5	9.87 ± 0.22	6.51 ± 0.15	4.5 ± 0.1	3.3 ± 0.07	2.48 ± 0.05
x2 = 0.6	897 ± 3.6	889 ± 3.6	880.2 ± 3.5	872.2 ± 3.5	864.3 ± 3.5	8.04 ± 0.18	5.4 ± 0.12	3.78 ± 0.08	2.8 ± 0.06	2.14 ± 0.05
x2 = 0.8	889.7 ± 3.6	881.6 ± 3.5	873 ± 3.5	864.6 ± 3.5	856.4 ± 3.4	6.36 ± 0.14	4.36 ± 0.1	3.11 ± 0.07	2.31 ± 0.05	1.79 ± 0.04

CCNCCO [2-(ethylamino)ethanol] + O
[2]
Settings	mass density, 293.15 K [kg/m3]	mass density, 303.15 K [kg/m3]	mass density, 313.15 K [kg/m3]	mass density, 323.15 K [kg/m3]	mass density, 333.15 K [kg/m3]	viscosity, 293.15 K [mPa·s]	viscosity, 303.15 K [mPa·s]	viscosity, 313.15 K [mPa·s]	viscosity, 323.15 K [mPa·s]	viscosity, 333.15 K [mPa·s]
x2 = 0	916.8 ± 3.7	909.7 ± 3.6	901.3 ± 3.6	894.7 ± 3.6	887.2 ± 3.6	15.39 ± 0.34	9.65 ± 0.22	6.64 ± 0.15	4.53 ± 0.1	3.36 ± 0.07
x2 = 0.2	929.5 ± 3.7	922.4 ± 3.7	914 ± 3.7	907.4 ± 3.6	898.6 ± 3.6	23.82 ± 0.53	14.54 ± 0.33	9.29 ± 0.21	6.23 ± 0.14	4.52 ± 0.1
x2 = 0.4	943.1 ± 3.8	936.1 ± 3.8	927.8 ± 3.7	920.7 ± 3.7	912 ± 3.7	31.73 ± 0.68	18.56 ± 0.43	11.41 ± 0.26	7.3 ± 0.16	5.03 ± 0.12
x2 = 0.6	961.6 ± 3.9	954.8 ± 3.8	946 ± 3.8	938.7 ± 3.8	931.1 ± 3.7	31.02 ± 0.66	17.34 ± 0.41	10.71 ± 0.24	7.08 ± 0.16	4.68 ± 0.11
x2 = 0.8	985.7 ± 3.9	979.5 ± 3.9	972.5 ± 3.9	963 ± 3.9	955.6 ± 3.8	13.83 ± 0.35	8.34 ± 0.21	5.44 ± 0.13	3.73 ± 0.09	2.69 ± 0.06

CCN(CC)CCO [(diethylamino)ethanol]
[1]
Settings	mass density [kg/m3]	viscosity [mPa·s]
293.15 K	883.5 ± 3.5	4.81 ± 0.1
303.15 K	875.1 ± 3.5	3.37 ± 0.07
313.15 K	866.2 ± 3.5	2.46 ± 0.05
323.15 K	857.5 ± 3.4	1.86 ± 0.04
333.15 K	849.2 ± 3.4	1.46 ± 0.03

CCN(CC)CCO [(diethylamino)ethanol] + CCNCCO
[2], x1 = 1
Settings	mass density [kg/m3]	viscosity [mPa·s]
293.15 K	883.5 ± 3.5	4.81 ± 0.1
303.15 K	875.1 ± 3.5	3.37 ± 0.07
313.15 K	866.2 ± 3.5	2.46 ± 0.05
323.15 K	857.5 ± 3.4	1.86 ± 0.04
333.15 K	849.2 ± 3.4	1.46 ± 0.03

O [water] + CCNCCO
[2], x1 = 1
Settings	mass density [kg/m3]	viscosity [mPa·s]
293.15 K	998 ± 4	1.01 ± 0.02
303.15 K	995.1 ± 4	0.8 ± 0.02
313.15 K	–	0.65 ± 0.01
323.15 K	989.2 ± 4	0.55 ± 0.01
333.15 K	985 ± 3.9	0.47 ± 0.01
